This is an account of results in US20250236596A1, “HYDROXYLAMINE-BASED EGFR INHIBITORS FOR TREATMENT OF CANCER WITH BRAIN METASTASES” (University of Georgia Research Foundation, Inc., priority 2022, published 2025).

Bounds are passed on as bounds.

One series relates to MDCKII-MDR1 cells. Description: MDCKII-MDR1 cell permeability assay. In kind it is in vitro ADME, canine. The conditions noted are these: result in words. Here is the method: Compounds were evaluated at Pharmaron Inc. for their ability to permeate Caco-2 cells and MDCKII-MDR1 cells. A 96-well HTS Transwell plate (Corning) was used for the Caco-2 and MDCKII-MDR1 cell seeding. Caco-2 cells were seeded at a density of 6.86×10^5 cells/mL and cultivated for 14-18 days prior to assays. MDCKII-MDR1 cells were seeded at a density of 1.56×10^6 cells/mL and cultivated for 4-8 days prior to assays. To determine the rate of drug transport in both the absorptive (apical to basolateral (A-B)) and secretory (basolateral to apical (B-A)) directions, compounds (5 μM in DMSO for Caco-2 cells, and 1 μM in DMSO for MDCKII-MDR1 cells) were added to the donor wells. Plates were incubated at 37° C. for 2 h and samples (50 μL) were taken at the beginning and end of the incubation in both the donor and acceptor wells with the assay run in duplicate (n=2). Samples were analyzed by LC-MS/MS. The apparent permeability coefficient (Papp) in units (cm/s×10^−6) was calculated using the following equation.
where, VA represents the volume (mL) in the acceptor well. Area is the surface of the membrane (0.143 cm^2 for Transwell-96 well plate) and time is the total transport time in sec.
The efflux ratio was determined using the following equation: Efflux ratio=Papp (B-A)/Papp(A-B)
Where, Papp (B-A) indicates the apparent permeability in the basolateral to apical direction, and Papp (A-B) indicates the apparent permeability in the apical to basolateral direction.

The target in a further series is T1, hERG channel (Homo sapiens, UniProt Q12809).
T1 construct: assay at Pharmaron Inc; host or cells: HEK293
Description: hERG channel inhibition, manual patch clamp. Type of series: cell-based. As to the method:
The potential inhibitory effect of compounds on the hERG channel was assessed by Pharmaron Inc. using the manual patch clamp system as previously described.^20 The HEK293 cell line (Invitrogen) stably transfected with the hERG gene was employed. Compounds were tested at 5 concentrations (0.37, 1.11, 3.33, 10 and 30 μM) and run in triplicate (n=3). IC50 values were determined by plotting the % inhibition against the concentration of compounds using GraphPad Prism from the non-linear regression equation fitted with a sigmoidal dose-response curve, and the IC50 values are presented as the mean±SEM.

In series [1] the test system is HCC827-luc intracranial tumor. Description: Intracranial PDX model with luciferase-tagged HCC827 cells. Type of series: in vivo, BALB/c nude mice. The conditions noted are these: 10 mg/kg PO b.i.d. Here is the method:
Animal experiments were performed at Pharmaron Inc. and animal use was approved by Pharmaron's Institutional Animal Care and Use Committee (IACUC) in Pharmaron (Pharmaron IACUC, Protocol #PK-M-07182022, #PK-R-06012022 and #ON-CELL-XEN-06012022) following the guidance of AAALAC. Six- to eight-week-old male SD rats (approximately 200-300 g) obtained from Si Bei Fu Laboratory Animal Technology Co., six- to eight-week-old male CD1 mice (approximately 20-30 g) obtained from Si Bei Fu Laboratory Animal Technology Co., and six- to eight-week-old female BALB/c nude mice (approximately 20-30 g) obtained from Si Bei Fu Laboratory Animal Technology Co., were used in the pharmacokinetic studies. Six- to eight-week-old female BALB/c nude mice (approximately 18-22 g) obtained from Beijing Anikeeper Biotech Co., Ltd were used in the intracranial PDX study. Animals were housed at 20-25° C. with humidity ranging from 40-70% relative humidity, were exposed to 12 h light and dark cycles, and were supplied with food and water ab libitum.
HCC827 cells stably expressing luciferase (HCC827-luc) were injected intracranially. Briefly, 3×10^5 HCC827-luc tumor cells suspended in 2 μL RPMI1640 medium were injected into the right forebrain of anesthetized mice (anesthetic: intramuscular injection of Zoletl™ 50 (Virbac S.A)). Mice were imaged bi-weekly using IVIS Lumina Ill (Perkin Elmer). Images were acquired 10 min post intraperitoneal (IP) injection with 15 mg/mL (at 5 μL/g body weight) of D-luciferin in anesthetized mice (anesthetic: 1-2% isoflurane inhalation). On day 20 post-cellular inoculation, mice were randomized into 2 treatment groups (n=10 mice per group): 1) 1% methylcellulose as vehicle control and 2) 15 (10 mg/kg) (formulation: 1% methylcellulose), PO, b.i.d. (twice daily) dosing (12 h intervals)×7 days for 21 days. […] Body weights of all mice were measured bi-weekly throughout the study and BW change, expressed in % was calculated using the following formula.
BW change (%)=(BWDay X/BWDay 0)×100
Where, BWDay X is the BW on a given day, and BWDay 0 is BW on Day 0 (initiation of treatment). […]

Series [2] deals with Salmonella strains (TA98, TA100, TA1537 and TA1535). In kind it is cell-based. The conditions noted are these: bacterial cytotoxicity observed above. As to the method:
Compounds were assessed for mutagenicity at Eurofins Panlabs. in 384-well plates using four Salmonella strains: TA98, to probe for frameshift mutation (with quercetin as control), TA100 and TA1535, to probe for base pair […] (with streptozotocin as control), and TA1537, to probe for frameshift mutations (with aminoacridine as control) as previously described.^21 Each compound was incubated at 37° C. for 96 h at four different concentrations (5, 10, 50, and 100 μM), with each concentration tested using 48 replicates, both with and without rat liver S9 metabolic activation. A concurrent bacterial cytotoxicity assay was ran at 0.6, 1.2, 2.5, 5, 10, 25, 50 and 100 μM to rule out false negatives. Bacterial cytotoxicity was expressed as percent of control growth (OD650). Compounds with growth of less than 60% control were flagged and considered bacterial cytotoxic. […] Significances of the positive counts between the treatment and control were determined using one-tailed Fisher's exact test.

Series [3] concerns 468-member human kinase panel. Put plainly: KINOMEScan kinase selectivity panel, S score. In kind it is binding. The conditions noted are these: 1 μM; 6/403 nonmutant kinases.
Description: Percent control was mapped onto the kinome tree using TREEspot™.

T1 sequence (Q12809 whole entry): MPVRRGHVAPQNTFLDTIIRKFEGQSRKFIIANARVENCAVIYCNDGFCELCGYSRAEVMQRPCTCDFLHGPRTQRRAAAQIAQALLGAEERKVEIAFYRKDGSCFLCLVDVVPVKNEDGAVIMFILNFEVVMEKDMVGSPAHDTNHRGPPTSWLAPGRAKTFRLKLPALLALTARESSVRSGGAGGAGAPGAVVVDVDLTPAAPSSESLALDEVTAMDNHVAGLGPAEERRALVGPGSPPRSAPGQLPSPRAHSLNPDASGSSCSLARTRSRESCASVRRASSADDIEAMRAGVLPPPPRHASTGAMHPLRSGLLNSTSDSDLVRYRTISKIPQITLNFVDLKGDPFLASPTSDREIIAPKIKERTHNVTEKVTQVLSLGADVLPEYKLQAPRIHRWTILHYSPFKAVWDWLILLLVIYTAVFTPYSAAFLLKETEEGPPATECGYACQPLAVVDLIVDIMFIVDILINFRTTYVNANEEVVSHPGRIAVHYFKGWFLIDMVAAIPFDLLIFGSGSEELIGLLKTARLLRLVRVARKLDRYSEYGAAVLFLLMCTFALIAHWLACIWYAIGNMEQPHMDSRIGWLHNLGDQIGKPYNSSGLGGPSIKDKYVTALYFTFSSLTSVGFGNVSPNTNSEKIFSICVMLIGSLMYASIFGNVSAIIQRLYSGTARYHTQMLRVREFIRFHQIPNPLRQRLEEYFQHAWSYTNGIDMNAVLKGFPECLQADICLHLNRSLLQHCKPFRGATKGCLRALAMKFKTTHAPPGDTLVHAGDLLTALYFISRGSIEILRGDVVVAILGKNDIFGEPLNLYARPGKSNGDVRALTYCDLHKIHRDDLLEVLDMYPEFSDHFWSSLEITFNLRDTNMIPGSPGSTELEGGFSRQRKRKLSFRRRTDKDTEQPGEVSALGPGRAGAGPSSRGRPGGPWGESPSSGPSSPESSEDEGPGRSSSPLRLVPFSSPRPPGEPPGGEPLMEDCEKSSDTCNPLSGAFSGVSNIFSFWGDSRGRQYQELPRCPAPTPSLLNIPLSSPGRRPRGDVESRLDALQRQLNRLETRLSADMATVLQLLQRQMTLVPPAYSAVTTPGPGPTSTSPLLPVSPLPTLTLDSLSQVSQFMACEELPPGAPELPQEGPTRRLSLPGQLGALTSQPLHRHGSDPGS

In general, IC50 refers to the point on the concentration scale where inhibition reaches its midpoint. Low values mean greater potency, high ones weaker potency. With `COc1cc2ncnc(Nc3cccc(Cl)c3F)c2cc1OCCON1CCN(C)CC1` [Compound 15, N-(3-chloro-2-fluorophenyl)-7-methoxy-6-(2-((4-methylpiperazin-1-yl)oxy)ethoxy)quinazolin-4-amine], in the series with MDCKII-MDR1 cells, the efflux entry is “low efflux” and the permeability entry was “excellent permeability”. The same compound yielded an IC50 at hERG channel (HEK293 cells transfected with hERG, patch clamp) of 6.48 µM. Moreover, the hERG maximal inhibition result on hERG channel (at 10 μM) was “approximately 60%”. In series [1] (21-day treatment window), the “mean body weight loss” value was not above 10%. For the same compound, the adverse clinical events entry in series [1] (21 days) is recorded as “no adverse clinical events”. In series [1] (21 days, P=0.0059), the “intracranial tumor response (bioluminescence) relative to vehicle control” value was “profound tumor regression”. Further, in series [2], the “concentration up to which negative ames result is valid” value is “up to 50 uM”. Further, in series [3], the “S(10) score” value is recorded as 0.015.
